Assay results reported in patent publication US20230127046A1, “G9a INHIBITOR” (RIKEN, priority 2019, published 2023).
Where two headings read alike, the source gives them in different places.

Assays:
[1] = target: T1, recombinant human G9a protein (Homo sapiens, UniProt Q96KQ7); assay: G9a inhibitory activity test (ALPHA); type: biochemical
T1 construct: purchased BPS Bioscience Inc. #51001
T1 sequence (Q96KQ7 785-1210 limits assumed): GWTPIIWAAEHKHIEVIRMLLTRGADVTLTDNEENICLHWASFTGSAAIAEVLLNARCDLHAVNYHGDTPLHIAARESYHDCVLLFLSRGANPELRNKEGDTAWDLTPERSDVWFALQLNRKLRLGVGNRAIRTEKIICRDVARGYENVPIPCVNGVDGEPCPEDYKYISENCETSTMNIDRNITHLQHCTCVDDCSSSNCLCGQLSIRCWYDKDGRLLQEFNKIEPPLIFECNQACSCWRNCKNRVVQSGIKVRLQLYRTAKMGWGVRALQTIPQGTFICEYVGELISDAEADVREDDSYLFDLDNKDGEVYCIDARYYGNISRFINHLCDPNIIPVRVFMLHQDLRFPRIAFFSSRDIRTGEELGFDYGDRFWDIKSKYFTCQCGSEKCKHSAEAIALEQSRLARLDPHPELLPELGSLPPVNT
How it was run: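 Human G9a (0.05 to 0.1 nM) in Tris pH 9.0 buffer preincubated with compound 10 min, then biotinylated histone H3 (1-21) peptide and SAM mixed 1:1 from 500 nM and 150 μM solutions, 1 h at room temperature. H3K9me2 detected by AlphaLISA acceptor/streptavidin donor beads; IC50 from percent inhibition relative to no-compound and no-enzyme controls.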

[2] = system: intracellular histone H3K9 dimethylation level in human lung cancer cell line NCI-H460; assay: Histone H3K9 dimethylation inhibitory activity test (Western blotting); type: cell-based; conditions: NCI-H460 cells, 72 hours
Procedure: The inhibitory activity of each compound against G9a was evaluated by adding the compound to a human lung cancer cell line NCI-H460, and detecting change in intracellular histone H3K9 dimethylation level by Western blotting. The NCI-H460 cells were cultured in a DMEM medium (FUJIFILM Wako Pure Chemical Corp., 044-29765) containing 10% fetal bovine serum and 4 mM glutamine. The cultured cells were washed with PBS and then detached with trypsin/EDTA, and the cell suspension was adjusted to 2.5×10^4 cells/mL. The cell suspension was inoculated at 500 μL/well to a 24-well microplate (Thermo Fisher Scientific, Inc., 142475) and cultured overnight under conditions of 37° C. and 5% CO2. On the next day, the test compound (solution in DMSO) was added at 0.5 µL/well and reacted for 72 hours under conditions of 37° C. and 5% CO2. DMSO was added at 0.5 μL/well to control wells (final DMSO concentration: 0.1%). The medium was removed, and the cells were washed with PBS. Then, a 2×SDS-PAGE sample buffer (100 mM Tris-HCl (pH 6.8), 4% sodium lauryl sulfate, 2% 2-mercaptoethanol, 20% glycerol, 0.005% bromophenol blue) was added at 50 μL/well to prepare a sample. The recovered sample was heated at 95 to 100° C. for 10 minutes, and protein was separated by polyacrylamide gel electrophoresis (SDS-PAGE). Subsequently, the separated protein was transferred to a polyvinylidene fluoride (PVDF) membrane by semi-dry blotting. The PVDF membrane was dipped in 3% skimmed milk (dissolved in PBS containing 0.05% Tween 20 (PBST)), blocked at room temperature for 30 to 60 minutes, then dipped in an anti-dimethylated histone H3K9 antibody (Abcam plc, ab1220) diluted 1000-fold with 3% skimmed milk, and reacted overnight at 4° C. On the next day, the PVDF membrane was washed three times with PBST, then dipped in a HRP (horseradish peroxidase)-labeled anti-mouse IgG antibody diluted 10000-fold with skimmed milk, and reacted at room temperature for 1 hour. The PVDF membrane was washed three times with PBST, then dipped in chemiluminescent substrate solution Immobilon Western Chemiluminescent HRP Substrate (Merck Millipore, WBKLS0500), incubated at room temperature for 5 minutes, and photographed with Lumino Image Analyzer (GE Healthcare Japan Corp., ImageQuant LAS4000).
Then, the antibody was stripped from the PVDF membrane using re-probe reagent EzReprobe (ATTO Corp., WSE-7240), and trimethylated histone H3K9 and histone H3 were detected by the same procedures as above. An anti-trimethyl histone H3K9 antibody (39161, diluted 1000-fold) from Active Motif, Inc. and an anti-histone H3 antibody (ab1791, diluted 2000-fold) from Abcam plc were used in the detection. The band of each protein was quantified from the taken image using image processing software ImageJ (NIH). The ratios of dimethylated histone H3K9 and trimethylated histone H3K9 to the histone H3 protein were calculated with the numeric value of a compound-unsupplemented sample defined as 100%. A compound concentration at which the ratio of dimethylated histone H3K9 was 50% was calculated as a 50% inhibition concentration (IC50 value) using data analysis software Origin (LightStone Corp.).

[3] = system: human lung cancer cell line NCI-H460; assay: Colony formation inhibition test; type: cell-based; conditions: 288 h, NCI-H460 cells, culture for 12 days, read-out: Inhibitory activity (colony formation GI50)
Procedure: Each compound was evaluated for its colony formation inhibitory activity against a human lung cancer cell line NCI-H460. The NCI-H460 cells were cultured in a DMEM medium (FUJIFILM Wako Pure Chemical Corp., 044-29765) containing 10% fetal bovine serum and 4 mM glutamine. The cultured cells were washed with PBS, then detached with trypsin/EDTA, and adjusted to 2×10^3 cells/mL to prepare a cell suspension. The cell suspension was inoculated at 1 mL/well to a 12-well microplate (Corning Inc., 3513), and the test compound (DMSO solution) was added at 1 μL/well, followed by culture for 12 days under conditions of 37° C. and 5% CO2. DMSO was added at 1 μL/well to control wells with a final DMSO concentration set to 0.1%. The medium was discarded every day or every two days, and a fresh medium was added at 1 mL/well. The test compound or DMSO was added at 1 μL/well. The proportion of a colony of each well was measured using a high-speed cell imaging system (Tomy Digital Biology Co., Ltd., Celigo). The ratio of the colony in each compound-supplemented group was determined with the ratio of the colony formed in a test compound solution-unsupplemented well defined as 1. A compound concentration necessary for suppressing the rate of colony formation by 50% of the control (GI50) was calculated using data analysis software Origin (LightStone Crop.).

[4] = read-out: Inhibitory activity (G9a IC50)
[5] = biotinylated histone H3 peptide (1-21), SAM, read-out: Inhibitory activity (G9a IC50 value)

Structure (SMILES) | IC50 [1, 4] | IC50 [2] | GI50 [3] | IC50 [1, 5]
CCCC[C@H](NC(=O)c1[nH]c2c(c1C)C(=O)CC(C)(C)C2)C(=O)N[C@@H](C)c1ccccc1 [Example 2-1, 3,6,6-trimethyl-4-oxo-N-((S)-1-oxo-1-(((S)-1-phenylethyl)amino)hexan-2-yl)-4,5,6,7-tetrahydro-1H-indole-2-carboxamide] | 50 to 200 nM | < 50 nM | 500 to 1000 nM | –
CCCCNC(=O)C(CCC1CC1)NC(=O)c1[nH]c2c(c1C)C(=O)CC(C)(C)C2 (stereo not shown) [Example 1-82] | – | < 50 nM | ≥ 1000 nM | 50 to 200 nM
Cc1c(C(=O)NC(CCC2CC2)C(=O)NC2CCN(C)CC2)[nH]c2c1C(=O)CC(C)(C)C2 (stereo not shown) [Example 1-68] | – | 50 to 500 nM | ≥ 1000 nM | ≥ 200 nM
O=C(Cc1ccccc1)NC(CCC1CC1)C(=O)Nc1ccc(OC2COC2)nc1 (stereo not shown) [Example 1-87] | – | 50 to 500 nM | ≥ 1000 nM | 50 to 200 nM
Cc1ccc(NC(=O)C(CCC2CC2)NC(=O)c2[nH]c3c(c2C)C(=O)CC(C)(C)C3)cn1 (stereo not shown) [Example 1-80] | – | 50 to 500 nM | 500 to 1000 nM | ≥ 200 nM
CCCCC(NC(=O)c1[nH]c2c(c1C)C(=O)CC(C)(C)C2)C(=O)N[C@@H](CO)c1ccccc1 (stereo partly drawn) [Example 3-1, N-(1-(((R)-2-hydroxy-1-phenylethyl)amino)-1-oxohexan-2-yl)-3,6,6-trimethyl-4-oxo-4,5,6,7-tetrahydro-1H-indole-2-carboxamide] | 50 to 200 nM | – | – | –
Cc1c(C(=O)NC(CCC2CC2)C(=O)NC2(c3ccc(C#N)cc3)CC2)[nH]c2c1C(=O)CC(C)(C)C2 (stereo not shown) [Example 1-69] | – | – | – | ≥ 200 nM
CCCCC(NC(=O)c1[nH]c2c(c1C)C(=O)CC(C)(C)C2)C(=O)NC1CCC(N(C)C)CC1 (stereo not shown) [Example 1-112] | ≥ 200 nM | – | – | –
Cc1c(C(=O)NC(CCC2CC2)C(=O)N2CCc3cc(OCCN(C)C)ccc32)[nH]c2c1C(=O)CC(C)(C)C2 (stereo not shown) [Example 1-134] | 50 to 200 nM | – | – | –
CSc1ccccc1NC(=O)C(CCC1CC1)NC(=O)c1[nH]c2c(c1C)C(=O)CC(C)(C)C2 (stereo not shown) [Example 1-83] | – | – | – | < 50 nM
Cc1c(C(=O)NC(CCC2CC2)C(=O)N2CCc3cc(CN4CCCC4)ccc32)[nH]c2c1C(=O)CC(C)(C)C2 (stereo not shown) [Example 1-127] | 50 to 200 nM | – | – | –
CCCCC(NC(=O)c1[nH]c2c(c1C)C(=O)CC(C)(C)C2)C(=O)Nc1cccc2c1CCN(C(=O)OC(C)(C)C)C2 (stereo not shown) [Example 1-115] | ≥ 200 nM | – | – | –
CCCCC(NC(=O)c1[nH]c2c(c1C)C(=O)CC(C)(C)C2)C(=O)Nc1c(C)cccc1OC (stereo not shown) [Example 1-36] | – | – | – | ≥ 200 nM
CCCCC(NC(=O)c1[nH]c2c(c1C)C(=O)CC(C)(C)C2)C(=O)Nc1ccccc1CCC (stereo not shown) [Example 1-19] | – | – | – | ≥ 200 nM

Next, values leading:

IC50 [1, 4] | IC50 [2] | GI50 [3] | IC50 [1, 5] | Structure (SMILES)
≥ 200 nM | 50 to 500 nM | 500 to 1000 nM | – | COc1ccc(NC(=O)C(CCC2CC2)NC(=O)c2ccc(CN3CCN(C)CC3)cc2)cn1 (stereo not shown) [Example 6-52]
< 50 nM | < 50 nM | < 500 nM | – | COc1ccc(NC(=O)[C@H](CCC2CC2)NC(=O)c2ccc(Nc3ccncc3)cc2)cn1 [Example 6-88]
< 50 nM | 50 to 500 nM | < 500 nM | – | COc1ccc(NC(=O)[C@H](CCC2CC2)NC(=O)c2ccc(Nc3cc(C)nc(C)c3)cc2)cn1 [Example 6-89]
< 50 nM | 50 to 500 nM | < 500 nM | – | COc1ccc(NC(=O)C(CCC2CC2)NC(=O)c2ccc(Nc3ccncc3)cc2C)cn1 (stereo not shown) [Example 6-51]
≥ 200 nM | 50 to 500 nM | ≥ 1000 nM | – | CCCC[C@H](NC(=O)c1[nH]c2c(c1C)C(=O)CC(C)(C)C2)C(=O)Nc1ccccc1 [Example 6-33]
< 50 nM | 50 to 500 nM | < 500 nM | – | COc1ccc(NC(=O)C(CCC2CC2)NC(=O)c2ccc(Nc3ccncc3)cc2)cn1 (stereo not shown) [Example 6-49]
< 50 nM | < 50 nM | < 500 nM | – | CCCC[C@H](NC(=O)c1[nH]c2c(c1C)C(=O)CC(C)(C)C2)C(=O)Nc1ccc(OC2CCN(C)CC2)cc1OC [Example 6-30]
< 50 nM | < 50 nM | < 500 nM | – | Cc1c(C(=O)N[C@@H](CCC2CC2)C(=O)Nc2ccccc2)[nH]c2c1C(=O)CC(C)(C)C2 [Example 6-26]
< 50 nM | 50 to 500 nM | 500 to 1000 nM | – | Cc1ccc(NC(=O)[C@H](CCC2CC2)NC(=O)c2[nH]c3c(c2C)C(=O)CC(C)(C)C3)cn1 [Example 6-10]
< 50 nM | – | – | – | CCCC[C@H](NC(=O)c1[nH]c2c(c1C)C(=O)CC(C)(C)C2)C(=O)NCc1ccc(N2CCNCC2)cc1 [Example 26-8]
50 to 200 nM | – | – | – | CCc1cc(C#N)ncc1NC(=O)C(CCC1CC1)NC(=O)c1[nH]c2c(c1C)C(=O)CC(C)(C)C2 (stereo not shown) [Example 15-2]
≥ 200 nM | – | – | – | COc1ccc(NC(=O)C(CCC2CC2)NC(=O)c2ccc(OCCCN(C)C)cc2)cn1 (stereo not shown) [Example 6-72]
≥ 200 nM | – | – | – | Cc1c(C(=O)NC(CCC2CC2)C(=O)Nc2cccnc2)[nH]c2c1C(=O)CC(C)(C)C2 (stereo not shown) [Example 6-16]
< 50 nM | – | – | – | CN(C)c1ccc(NC(=O)C(CCC2CC2)NC(=O)c2ccc(Nc3ccncc3)cc2)cn1 (stereo not shown) [Example 6-85]
≥ 200 nM | – | – | – | CCCCC(NC(=O)c1[nH]c2ccc(OC)cc2c1C)C(=O)Nc1ccc(OC2CCN(C)CC2)nc1 (stereo not shown) [Example 6-93]
≥ 200 nM | – | – | – | CCCCC(NC(=O)c1sc(-c2ccccc2)nc1C)C(=O)Nc1ccc(OC2CCN(C)CC2)nc1 (stereo not shown) [Example 11-10]
50 to 200 nM | – | – | – | CCCCC(NC(=O)c1[nH]c2c(c1C)C(=O)CC(C)(C)C2)C(=O)Nc1cnccc1CC (stereo not shown) [Example 6-22]
≥ 200 nM | – | – | – | CCCCC(NC(=O)c1[nH]c2c(c1C)C(=O)CC(C)(C)C2)C(=O)Nc1ccc(C(N)=O)cc1 (stereo not shown) [Example 20-1, N-[1-(4-carbamoylanilino)-1-oxohexan-2-yl]-3,6,6-trimethyl-4-oxo-5,7-dihydro-1H-indole-2-carboxamide]
≥ 200 nM | – | – | – | CCCCC(NC(=O)c1cc2cc(OCC)ccc2[nH]1)C(=O)Nc1ccc(OC2CCN(C)CC2)nc1 (stereo not shown) [Example 6-94]
